Experimental data published in ChEMBL document CHEMBL1806399, “Synthesis and SAR of new pyrazolo[4,3-h]quinazoline-3-carboxamide derivatives as potent and selective MPS1 kinase inhibitors” (Bioorg Med Chem Lett, 2011).
≈ marks a conversion by molar mass, not a printed value.

test system: not listed separately; test: AUC in mouse at 10 mg/kg, po; format: ADME, organism-based; design: dose 10 mg/kg, route oral; conditions: plasma

| Structure (SMILES) | AUC [µM·h] |
| --- | --- |
| CCc1cccc(CC)c1NC(=O)c1nn(C)c2c1CCc1cnc(Nc3ccc(C(=O)N4CCCN(C)CC4)cc3OC(F)(F)F)nc1-2 | 0.64 |

test system: not listed separately; test: AUC in mouse at 10 mg/kg, iv; format: ADME, organism-based; design: dose 10 mg/kg, route intravenous; conditions: plasma

| Structure (SMILES) | AUC [µM·h] |
| --- | --- |
| CCc1cccc(CC)c1NC(=O)c1nn(C)c2c1CCc1cnc(Nc3ccc(C(=O)N4CCCN(C)CC4)cc3OC(F)(F)F)nc1-2 | 2.9 |

test system: not listed separately; test: Solubility of the compound at pH 7; format: physicochemical; conditions: buffer

| Structure (SMILES) | solubility [µM] |
| --- | --- |
| CCc1cccc(CC)c1NC(=O)c1nn(C)c2c1CCc1cnc(Nc3ccc(C(=O)N4CCC[C@@H]4CN4CCCC4)cc3OC(F)(F)F)nc1-2 | 65 (≈ 46.6 µg/mL) |
| CCc1cccc(CC)c1NC(=O)c1nn(C)c2c1CCc1cnc(Nc3ccc(C(=O)N4CCC[C@H]4CN4CCCC4)cc3OC)nc1-2 | 96 (≈ 63.6 µg/mL) |
| CCc1cccc(CC)c1NC(=O)c1nn(C)c2c1CCc1cnc(Nc3ccc(C(=O)N4CCC[C@H]4CN4CCCC4)cc3OC(F)(F)F)nc1-2 | 69 (≈ 49.5 µg/mL) |
| CCc1cccc(CC)c1NC(=O)c1nn(C)c2c1CCc1cnc(Nc3ccc(C(=O)N4CCC(N(C)C)CC4)cc3OC)nc1-2 | 116 (≈ 73.9 µg/mL) |
| CCc1cccc(CC)c1NC(=O)c1nn(C)c2c1CCc1cnc(Nc3ccc(C(=O)N4CCCN(C)CC4)cc3OC(F)(F)F)nc1-2 | 46 (≈ 31.1 µg/mL) |

test system: not listed separately; test: Oral bioavailability in mouse at 10 mg/kg; format: ADME, organism-based; conditions: in vivo

| Structure (SMILES) | bioavailability [%] |
| --- | --- |
| CCc1cccc(CC)c1NC(=O)c1nn(C)c2c1CCc1cnc(Nc3ccc(C(=O)N4CCCN(C)CC4)cc3OC(F)(F)F)nc1-2 | 22.4 |

test system: not listed separately; test: Half life in mouse at 10 mg/kg, iv; format: ADME, organism-based; design: dose 10 mg/kg, route intravenous; conditions: in vivo

| Structure (SMILES) | half-life [h] |
| --- | --- |
| CCc1cccc(CC)c1NC(=O)c1nn(C)c2c1CCc1cnc(Nc3ccc(C(=O)N4CCCN(C)CC4)cc3OC(F)(F)F)nc1-2 | 1.61 |

test system: not listed separately; test: Half life in mouse at 10 mg/kg, po; format: ADME, organism-based; design: dose 10 mg/kg, route oral; conditions: in vivo

| Structure (SMILES) | half-life [h] |
| --- | --- |
| CCc1cccc(CC)c1NC(=O)c1nn(C)c2c1CCc1cnc(Nc3ccc(C(=O)N4CCCN(C)CC4)cc3OC(F)(F)F)nc1-2 | 2.92 |

test system: not listed separately; test: Clearance in mouse at 10 mg/kg, iv; format: ADME, organism-based; design: dose 10 mg/kg, route intravenous; conditions: in vivo

| Structure (SMILES) | clearance [mL/min/kg] |
| --- | --- |
| CCc1cccc(CC)c1NC(=O)c1nn(C)c2c1CCc1cnc(Nc3ccc(C(=O)N4CCCN(C)CC4)cc3OC(F)(F)F)nc1-2 | 77.5 |

test system: A2780; test: Antiproliferative activity in human A2780 cells after 72 hrs by CellTiter-Glo assay; format: functional, cell-based; conditions: A2780, 72 h

| Structure (SMILES) | IC50 [nM] |
| --- | --- |
| CCc1cccc(CC)c1NC(=O)c1nn(C)c2c1CCc1cnc(Nc3ccc(C(=O)N4CCC[C@@H]4CN4CCCC4)cc3OC(F)(F)F)nc1-2 | 422 |
| CCc1cccc(CC)c1NC(=O)c1nn(C)c2c1CCc1cnc(Nc3ccc(C(=O)N4CCC[C@H]4CN4CCCC4)cc3OC)nc1-2 | 73 |
| CCc1cccc(CC)c1NC(=O)c1nn(C)c2c1CCc1cnc(Nc3ccc(C(=O)N4CCC[C@H]4CN4CCCC4)cc3OC(F)(F)F)nc1-2 | 407 |
| CCc1cccc(CC)c1NC(=O)c1nn(C)c2c1CCc1cnc(Nc3ccc(C(=O)N4CCC(N(C)C)CC4)cc3OC)nc1-2 | 83 |
| CCc1cccc(CC)c1NC(=O)c1nn(C)c2c1CCc1cnc(Nc3ccc(C(=O)N4CCCN(C)CC4)cc3OC(F)(F)F)nc1-2 | 244 |

test system: not listed separately; test: Volume of distribution at steady state in mouse at 10 mg/kg, iv; format: ADME, organism-based; design: dose 10 mg/kg, route intravenous; conditions: in vivo, read-out: Vdss

| Structure (SMILES) | Vd [L/kg] |
| --- | --- |
| CCc1cccc(CC)c1NC(=O)c1nn(C)c2c1CCc1cnc(Nc3ccc(C(=O)N4CCCN(C)CC4)cc3OC(F)(F)F)nc1-2 | 8.41 |

test system: U2OS; test: Inhibition of mitosis in human U2OS cells assessed as histone H3 phosphorylation at Ser 10 residue after 2 hrs by immunoassay; format: functional, cell-based; conditions: not given

| Structure (SMILES) | IC50 [nM] |
| --- | --- |
| CCc1cccc(CC)c1NC(=O)c1nn(C)c2c1CCc1cnc(Nc3ccc(C(=O)N4CCC[C@@H]4CN4CCCC4)cc3OC(F)(F)F)nc1-2 | 210 |
| CCc1cccc(CC)c1NC(=O)c1nn(C)c2c1CCc1cnc(Nc3ccc(C(=O)N4CCC[C@H]4CN4CCCC4)cc3OC)nc1-2 | 13 |
| CCc1cccc(CC)c1NC(=O)c1nn(C)c2c1CCc1cnc(Nc3ccc(C(=O)N4CCC[C@H]4CN4CCCC4)cc3OC(F)(F)F)nc1-2 | 260 |
| CCc1cccc(CC)c1NC(=O)c1nn(C)c2c1CCc1cnc(Nc3ccc(C(=O)N4CCC(N(C)C)CC4)cc3OC)nc1-2 | 2 |
| CCc1cccc(CC)c1NC(=O)c1nn(C)c2c1CCc1cnc(Nc3ccc(C(=O)N4CCCN(C)CC4)cc3OC(F)(F)F)nc1-2 | 32 |

test system: not listed separately; test: Cmax in mouse at 10 mg/kg, po; format: ADME, organism-based; design: dose 10 mg/kg, route oral; conditions: in vivo

| Structure (SMILES) | Cmax [nM] |
| --- | --- |
| CCc1cccc(CC)c1NC(=O)c1nn(C)c2c1CCc1cnc(Nc3ccc(C(=O)N4CCCN(C)CC4)cc3OC(F)(F)F)nc1-2 | 245 |

target: Serine/threonine-protein kinase PLK1 (Homo sapiens, UniProt P53350); test: Inhibition of PLK1 assessed as [33P]-gamma-ATP incorporation into substrate by gamma counting; conditions: not given
Sequence (P53350 whole entry): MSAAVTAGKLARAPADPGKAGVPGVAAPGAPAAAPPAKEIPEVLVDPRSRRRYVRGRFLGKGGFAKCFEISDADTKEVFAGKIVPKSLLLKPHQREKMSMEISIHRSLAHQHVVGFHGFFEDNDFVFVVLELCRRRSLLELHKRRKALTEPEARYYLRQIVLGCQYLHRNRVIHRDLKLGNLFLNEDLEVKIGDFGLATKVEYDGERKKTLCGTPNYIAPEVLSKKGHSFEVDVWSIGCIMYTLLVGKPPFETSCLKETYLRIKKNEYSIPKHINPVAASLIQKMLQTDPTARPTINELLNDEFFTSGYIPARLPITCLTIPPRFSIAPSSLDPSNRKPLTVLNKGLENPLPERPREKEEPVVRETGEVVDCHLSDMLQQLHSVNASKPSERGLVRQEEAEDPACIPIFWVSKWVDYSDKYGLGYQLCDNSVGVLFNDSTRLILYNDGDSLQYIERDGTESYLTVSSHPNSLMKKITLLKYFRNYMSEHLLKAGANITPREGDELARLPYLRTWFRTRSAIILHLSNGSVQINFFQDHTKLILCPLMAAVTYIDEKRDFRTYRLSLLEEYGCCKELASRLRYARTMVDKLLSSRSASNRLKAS

| Structure (SMILES) | IC50 [nM] |
| --- | --- |
| CCc1cccc(CC)c1NC(=O)c1nn(C)c2c1CCc1cnc(Nc3ccc(C(=O)N4CCC[C@@H]4CN4CCCC4)cc3OC(F)(F)F)nc1-2 | > 10000 |
| CCc1cccc(CC)c1NC(=O)c1nn(C)c2c1CCc1cnc(Nc3ccc(C(=O)N4CCC[C@H]4CN4CCCC4)cc3OC)nc1-2 | > 10000 |
| CCc1cccc(CC)c1NC(=O)c1nn(C)c2c1CCc1cnc(Nc3ccc(C(=O)N4CCC[C@H]4CN4CCCC4)cc3OC(F)(F)F)nc1-2 | > 10000 |
| CCc1cccc(CC)c1NC(=O)c1nn(C)c2c1CCc1cnc(Nc3ccc(C(=O)N4CCC(N(C)C)CC4)cc3OC)nc1-2 | > 10000 |
| CCc1cccc(CC)c1NC(=O)c1nn(C)c2c1CCc1cnc(Nc3ccc(C(=O)N4CCCN(C)CC4)cc3OC(F)(F)F)nc1-2 | > 10000 |

target: T1, Dual specificity protein kinase TTK (Homo sapiens, UniProt P33981); test: Inhibition of MPS1 assessed as [33P]-gamma-ATP incorporation into substrate P38-betatide by gamma counting; conditions: not given
T1 sequence (P33981 whole entry): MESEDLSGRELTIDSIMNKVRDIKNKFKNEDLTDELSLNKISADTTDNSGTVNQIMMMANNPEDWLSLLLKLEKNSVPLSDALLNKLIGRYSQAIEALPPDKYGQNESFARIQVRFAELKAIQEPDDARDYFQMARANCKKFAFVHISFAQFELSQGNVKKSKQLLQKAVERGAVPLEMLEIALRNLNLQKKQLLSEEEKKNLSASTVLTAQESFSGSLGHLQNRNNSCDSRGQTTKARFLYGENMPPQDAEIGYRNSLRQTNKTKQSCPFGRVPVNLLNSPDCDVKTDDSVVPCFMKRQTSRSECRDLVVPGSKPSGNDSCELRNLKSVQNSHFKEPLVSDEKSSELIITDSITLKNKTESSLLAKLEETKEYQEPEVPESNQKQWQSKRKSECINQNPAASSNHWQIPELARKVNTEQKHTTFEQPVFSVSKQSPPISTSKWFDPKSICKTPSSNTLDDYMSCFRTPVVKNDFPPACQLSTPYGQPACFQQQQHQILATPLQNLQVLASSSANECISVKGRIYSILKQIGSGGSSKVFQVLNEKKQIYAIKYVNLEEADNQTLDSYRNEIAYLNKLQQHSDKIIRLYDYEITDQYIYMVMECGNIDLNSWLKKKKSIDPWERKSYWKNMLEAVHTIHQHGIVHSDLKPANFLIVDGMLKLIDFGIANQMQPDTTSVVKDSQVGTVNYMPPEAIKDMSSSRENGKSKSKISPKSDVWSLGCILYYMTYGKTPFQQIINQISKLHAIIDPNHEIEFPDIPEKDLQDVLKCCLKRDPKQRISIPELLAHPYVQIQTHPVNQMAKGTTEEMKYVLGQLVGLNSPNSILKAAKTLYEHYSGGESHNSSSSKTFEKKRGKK

| Structure (SMILES) | IC50 [nM] |
| --- | --- |
| CCc1cccc(CC)c1NC(=O)c1nn(C)c2c1CCc1cnc(Nc3ccc(C(=O)N4CCC[C@@H]4CN4CCCC4)cc3OC(F)(F)F)nc1-2 | 391 |
| CCc1cccc(CC)c1NC(=O)c1nn(C)c2c1CCc1cnc(Nc3ccc(C(=O)N4CCC[C@H]4CN4CCCC4)cc3OC)nc1-2 | 72 |
| CCc1cccc(CC)c1NC(=O)c1nn(C)c2c1CCc1cnc(Nc3ccc(C(=O)N4CCC[C@H]4CN4CCCC4)cc3OC(F)(F)F)nc1-2 | 202 |
| CCc1cccc(CC)c1NC(=O)c1nn(C)c2c1CCc1cnc(Nc3ccc(C(=O)N4CCC(N(C)C)CC4)cc3OC)nc1-2 | 19 |
| CCc1cccc(CC)c1NC(=O)c1nn(C)c2c1CCc1cnc(Nc3ccc(C(=O)N4CCCN(C)CC4)cc3OC(F)(F)F)nc1-2 | 146 |

target: Cyclin-dependent kinase 2/cyclin A (Homo sapiens, UniProt P24941); test: Inhibition of CDK2/Cyclin A assessed as [33P]-gamma-ATP incorporation into substrate by gamma counting; format: protein-complex assay; conditions: not given

| Structure (SMILES) | IC50 [nM] |
| --- | --- |
| CCc1cccc(CC)c1NC(=O)c1nn(C)c2c1CCc1cnc(Nc3ccc(C(=O)N4CCC[C@@H]4CN4CCCC4)cc3OC(F)(F)F)nc1-2 | > 10000 |
| CCc1cccc(CC)c1NC(=O)c1nn(C)c2c1CCc1cnc(Nc3ccc(C(=O)N4CCC[C@H]4CN4CCCC4)cc3OC)nc1-2 | > 10000 |
| CCc1cccc(CC)c1NC(=O)c1nn(C)c2c1CCc1cnc(Nc3ccc(C(=O)N4CCC[C@H]4CN4CCCC4)cc3OC(F)(F)F)nc1-2 | > 10000 |
| CCc1cccc(CC)c1NC(=O)c1nn(C)c2c1CCc1cnc(Nc3ccc(C(=O)N4CCC(N(C)C)CC4)cc3OC)nc1-2 | > 10000 |
| CCc1cccc(CC)c1NC(=O)c1nn(C)c2c1CCc1cnc(Nc3ccc(C(=O)N4CCCN(C)CC4)cc3OC(F)(F)F)nc1-2 | > 10000 |

target: T2, Aurora kinase A (Homo sapiens, UniProt O14965); test: Inhibition of Aur-A assessed as [33P]-gamma-ATP incorporation into substrate by gamma counting; conditions: not given
T2 sequence (O14965 whole entry): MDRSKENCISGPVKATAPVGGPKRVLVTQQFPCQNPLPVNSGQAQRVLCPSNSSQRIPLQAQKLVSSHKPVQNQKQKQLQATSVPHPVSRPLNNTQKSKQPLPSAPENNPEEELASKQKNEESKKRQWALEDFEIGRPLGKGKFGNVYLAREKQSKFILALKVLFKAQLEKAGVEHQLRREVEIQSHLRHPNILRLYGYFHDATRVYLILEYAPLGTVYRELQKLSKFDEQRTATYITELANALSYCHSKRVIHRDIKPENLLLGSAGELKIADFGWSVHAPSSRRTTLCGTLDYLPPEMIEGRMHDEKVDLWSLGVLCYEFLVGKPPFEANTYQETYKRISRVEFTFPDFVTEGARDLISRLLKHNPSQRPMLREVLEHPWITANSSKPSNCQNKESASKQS

| Structure (SMILES) | IC50 [nM] |
| --- | --- |
| CCc1cccc(CC)c1NC(=O)c1nn(C)c2c1CCc1cnc(Nc3ccc(C(=O)N4CCC[C@@H]4CN4CCCC4)cc3OC(F)(F)F)nc1-2 | > 10000 |
| CCc1cccc(CC)c1NC(=O)c1nn(C)c2c1CCc1cnc(Nc3ccc(C(=O)N4CCC[C@H]4CN4CCCC4)cc3OC)nc1-2 | 491 |
| CCc1cccc(CC)c1NC(=O)c1nn(C)c2c1CCc1cnc(Nc3ccc(C(=O)N4CCC[C@H]4CN4CCCC4)cc3OC(F)(F)F)nc1-2 | > 10000 |
| CCc1cccc(CC)c1NC(=O)c1nn(C)c2c1CCc1cnc(Nc3ccc(C(=O)N4CCC(N(C)C)CC4)cc3OC)nc1-2 | 484 |
| CCc1cccc(CC)c1NC(=O)c1nn(C)c2c1CCc1cnc(Nc3ccc(C(=O)N4CCCN(C)CC4)cc3OC(F)(F)F)nc1-2 | > 10000 |
